Entries after “also recorded” stand apart in the source; their conditions may differ.
Legend:
Assay type in all cases: in vivo
Tygress tomato plants [1] = experiment: Foliar nutrient concentration at 6 WAT, open-field tomato (Examples 7-10); conditions: in vivo
Procedure, shortened: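 Open-field 2008 trial, Balm FL; 'Tygress' tomato and 'Patriot' pepper transplants on drip-fed raised beds. Foliar micronutrient sprays at 3 and 5 WAT (BIOX-CM at 4 and 5), 60 gal/acre with surfactant. Youngest mature leaves sampled 6 WAT; RCBD, 5 replications, Fisher's LSD 5%.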

Tygress tomato plants [2] = experiment: Marketable yield, open-field tomato (Examples 7-10); conditions: in vivo
Description: (§1) The following experiments were performed in open-field plots during the spring of 2008 at GCREC, Balm, University of Florida. Four products delivering Zn (BIOX-Z), Mn (BIOX-M), Cu (BIOX-Cu), and Fe (BIOX-Fe) were compared to other micronutrient supplement formulations in tomato and bell pepper plants.
(§2) The plot sizes for the tomato plants were 30-ft plots (15 plants per plot) and 15-ft plots were used for the bell pepper plants (30 plants per plot). Crop set-up, procedures and variables were as follows.
(§3) Transplants of ‘Tygress’ tomato plants and ‘Patriot’ bell pepper plants in the 4-true leaf stage (about 6 inches tall) were planted in raised beds in open-field plots. The cross-section of each raised bed was 28 inches wide at the top, 32 inches wide at the base, and 8 inches tall. Irrigation and non-micronutrient fertilizer were provided daily through two drip lines per bed (0.45 gal/100 ft bed/min) at recommended rates for tomato and bell pepper production in Florida. […] The height of the plants for each of the treatment groups was measured at 3 weeks after transplantation (WAT), just prior to treatment with the experimental foliar fertilizers.
(§4) All foliar fertilizers except BIOX-CM were applied to the various treatment groups at 3 weeks after transplantation (WAT) and again at 5 WAT. The BIOX-CM treatment was applied at 4 and 5 WAT. The working water volume was 60 gal/acre and a non-ionic surfactant (Ad-Spray 80) was added in the amount of 2 pints/100 gal water. All plots were sprayed with sprayers pressurized at 25 psi and the canopies of both crops were covered with the micronutrient solutions. Treated plots were isolated during foliar fertilizer application to avoid the cross-contamination of other treatments on adjoining plots.
(§5) Leaf samples were collected from the most recent mature leaves from each plant at 6 WAT (2 weeks after initial treatment). Foliar tissue analysis was performed by a commercial laboratory to determine the concentration of N, P, K, Mg, Ca, B, Zn, Mn, Fe, and Cu. Tomato marketable fruit weights were collected at 10 and 12 WAT, and the fruits were graded according to USDA standards. Pepper marketable fruit weights were determined beginning at 5 WAT over 5 weekly harvests. Fruit mineral analysis (N, P, K, Mg, Ca, B, Zn, Mn, Fe, and Cu) was performed on samples from the tomato harvest.
(§6) The experimental design was a randomized complete block design with 5 replications for each treatment. All comparison data were analyzed using a general linear model and the means of each treatment were separated with a Fisher's protected LSD test at the 5% significance level.

[3] = test system: Patriot bell pepper plants; experiment: Marketable yield, open-field bell pepper (Examples 7-10); conditions: in vivo
Description: as §1, §2, §3, §4, §5, §6

[4] = test system: Patriot bell pepper plants; experiment: Foliar nutrient concentration at 6 WAT, open-field bell pepper (Examples 7-10); conditions: in vivo
Description: as §1, §2, §3, §4, §5, §6

Tygress tomato plants [5] = conditions: BIOX-Cu at 0.46 and 0.55 lb/acre; Cu-sulfate at 0.8 lb/acre; BIOX-EDC at 0.4 lb/acre
Description: (§7) The following experiments were performed in a green house during the spring of 2009 at GCREC, Balm, University of Florida. Crop set-up, procedures and variables were as follows.
(§8) Transplants of ‘Tygress’ tomato plants were planted in 2-gallon pots filled with commercial planting medium with nutrient concentration of Fe, Zn, Mn, Cu being negligible and insufficient for crop growth. Irrigation and non-micronutrient fertilizer were provided daily through microsprinklers at recommended rates for tomato production in Florida. No pesticides were used. Treatments were as described in Tables 42, 43, and 44 below. BIOX-Cu was compared to Cu-sulfate, BIOX-EDC, and BIOX-O; and BIOX-Fe was compared to Fe-sulfate and BIOX-EDF. BIOX-MEZ is Ca-HMTBA.
(§9) Treatments were applied at 6 WAT (weeks after transplanting) using a water volume of 200 mL/plant. Deionized water was used for foliar applications. A non-ionic surfactant was added. Other nutrients were applied as appropriate under non-limiting conditions.
Toxicity of the treatments was assessed by rating foliar tissue using a visual scale, where 0=no injury and 10=plant death.
(§10) Experimental design was a randomized complete block design with 6 replications. Data were analyzed using a general linear model, and means were separated using an LSD test at the 5% significance level.

Tygress tomato plants [6] = experiment: Nutrient concentration of tomato fruits at 10 WAT, open field (Examples 7-10); conditions: in vivo
Description: as §1, §2, §3, §4, §5, §6

Tygress tomato plants [7] = experiment: Foliar nutrient concentration at 7 WAT, greenhouse tomato spring 2009 (Examples 13-15); conditions: 7 WAT (1 week after treatment)
Description: as §7, §8, §9
Foliar tissue nutrient analysis was performed at 3 WAT (i.e., 3 weeks before treatment) and 7 WAT (i.e., 1 weeks after treatment) on the non-applied newest leaves. The concentrations of N, P, K, Mg, Ca, B, Zn, Mn, Fe, and Cu in the foliar tissue were determined by a commercial laboratory. There were no significant differences between the foliar nutrient concentrations of any of the treatment groups prior to treatment.
as §10

Aristotle bell pepper = conditions: in vivo
Procedure, shortened: (§11)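 Florida-47 tomato and Aristotle bell pepper transplants in 2-gal pots with low-nutrient medium (pH 5.36), drip-irrigated; products at three rates in deionized water plus non-ionic surfactant sprayed on newly matured leaves at 3 and 7 WAT. Toxicity scored at 4 WAT (0=no damage, 10=death); foliar tissue analysed at 6 WAT; marketable fruit harvested 4 times (tomato).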

Florida-47 tomato = conditions: in vivo
Procedure, shortened: as §11

Tygress tomato plants [8] = experiment: Yields of tomato fruits, greenhouse spring 2009 (Examples 13-15); conditions: BIOX-Cu at 0.46 and 0.55 lb/acre; Cu-sulfate at 0.8 lb/acre; BIOX-EDC at 0.4 lb/acre
Description: as §7, §8, §9
Marketable fruit were collected three times during the growing season, starting at 10 WAT (4 weeks after the initial treatment). Tomato fruit was graded as marketable and non-marketable. Marketable fruit was sized as extra-large, large, and medium. Non-marketable fruit were harvested and number and weight recorded but not sized.
as §10

For O=S(=O)([O-])[O-].[Cu+2] [BIOX-INC, copper sulfate], the “Foliar B concentration of tomato plants” value (Tygress tomato plants [1]) was 40 ppm, the “Foliar Ca concentration of tomato plants” value (Tygress tomato plants [1]) was 2.0% and the “Foliar Cu concentration of tomato plants” value (Tygress tomato plants [1]) was 503 a ppm. For the same compound, the “Foliar Fe concentration of tomato plants” value (Tygress tomato plants [1]) was 71 ppm, the “Foliar K concentration of tomato plants” value (Tygress tomato plants [1]) was 5.3% and the “Foliar Mg concentration of tomato plants” value (Tygress tomato plants [1]) was 0.60%. For the same compound, the “Foliar Mn concentration of tomato plants” value (Tygress tomato plants [1]) was 208 ppm, the “Foliar N concentration of tomato plants” value (Tygress tomato plants [1]) was 4.7% and the “Foliar P concentration of tomato plants” value (Tygress tomato plants [1]) was 0.17%. The “Foliar Zn concentration of tomato plants” value (Tygress tomato plants [1]) was 281 ppm, the “Foliar concentration of Cu of tomato plants compared to control, statement” value (Tygress tomato plants [1]) was “significant increase in the foliar concentration of Cu” and the “Marketable yield, Tomato” value (Tygress tomato plants [2]) was 17.4 a ton/acre. The “Tomato marketable yield compared to control, statement” value (Tygress tomato plants [2]) was “significantly increased tomato marketable yields relative to control; also recorded: significantly higher marketable yield of tomato fruits compared to control”, the “Marketable yield, Bell Pepper” value [3] was 7.3 ton/acre and the “Foliar B concentration of bell pepper plants” value [4] was 39 ppm. For the same compound, the “Foliar Ca concentration of bell pepper plants” value [4] was 2.0%, the “Foliar Cu concentration of bell pepper plants” value [4] was 503 a ppm and the “Foliar Fe concentration of bell pepper plants” value [4] was 71 ppm. For the same compound, the “Foliar K concentration of bell pepper plants” value [4] was 5.3%, the “Foliar Mg concentration of bell pepper plants” value [4] was 0.60% and the “Foliar Mn concentration of bell pepper plants” value [4] was 208 ppm. The “Foliar N concentration of bell pepper plants” value [4] was 4.7%, the “Foliar P concentration of bell pepper plants” value [4] was 0.17% and the “Foliar Zn concentration of bell pepper plants” value [4] was 281 ppm. For the same compound, the “Foliar concentration of Cu of bell pepper plants compared to control, statement” value [4] was “significant increase in the foliar concentration of Cu”, the “Toxicity compared to non-treated control plants, statement” value (Tygress tomato plants [5]) was “increased levels of toxicity” and the “B concentration of tomato fruits” value (Tygress tomato plants [6]) was 21 ppm. The “Ca concentration of tomato fruits” value (Tygress tomato plants [6]) was 0.2%, the “Cu concentration of tomato fruits” value (Tygress tomato plants [6]) was 22 ppm and the “Fe concentration of tomato fruits” value (Tygress tomato plants [6]) was 85 ppm. The “K concentration of tomato fruits” value (Tygress tomato plants [6]) was 8.0%, the “Mg concentration of tomato fruits” value (Tygress tomato plants [6]) was 0.38% and the “Mn concentration of tomato fruits” value (Tygress tomato plants [6]) was 42 ppm. The “N concentration of tomato fruits” value (Tygress tomato plants [6]) was 4.4%, the “P concentration of tomato fruits” value (Tygress tomato plants [6]) was 0.68% and the “Zn concentration of tomato fruits” value (Tygress tomato plants [6]) was 332 ppm. The “Copper concentrations in tomato leaves, statement” value (Tygress tomato plants [7]) was “highest leaf copper concentrations”, the Pepper toxicity (Aristotle bell pepper) was 0 and the Tomato toxicity (Florida-47 tomato) was 0. For the same compound, the “Marketable tomato yields compared to non-treated control, statement” value (Tygress tomato plants [8]) was “did not alter marketable yields relative to the non-treated control”.

Reference: patent US20110098177A1, “METHODS AND COMPOSITIONS OF PLANT MICRONUTRIENTS” (NOVUS INTERNATIONAL INC., priority 2006, published 2011)
